Measurements reported in ChEMBL document CHEMBL3046302, “Antifungal constituents from the seeds of Allium fistulosum L” (J Agric Food Chem, 2002).
Calls of active or inactive are those of the source. The rule behind the calls is not given here.

Tested on: Phytophthora capsici
Assay: Antifungal activity against Phytophthora capsici assessed as fungal growth inhibition at 0.3 to 0.5 mM after 0.5 to 4.5 days
Format: functional, organism-based

| SMILES | growth inhibition (GI) |
| --- | --- |
| CCCCCCC(O)C(O)/C=C/C(O)CCCCCCC(=O)OCC(O)CO (configuration not stated) | Active |
| CCCCCCC(O)C(O)/C=C/C(O)CCCCCCC(=O)O (configuration not stated) | Active |
